Test results as given in the supplement of paper PMC10011410.
± gives the standard deviation of the averaged measurements.

Legend:
U-2 OS [1] = experiment: AUC of culture confluence over time (live-cell imaging) (AUC (confluence % x time)); higher = more confluent culture (less growth inhibition)
Method: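 Live-cell Incucyte imaging of U-2 OS cells in F-12K medium. Compounds were tested mostly at 5, 10 and 20 uM, and cells were imaged every 4 h for up to 60 h. Value is the area under the curve of phase-contrast confluence over time.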

U-2 OS [2] = experiment: cell painting activity score (Mahalanobis distance from DMSO wells); higher = stronger morphological phenotype; settings: 24 h
Method: (§1)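 Cell painting in U-2 OS cells (384-well, about 1,500 cells per well), compound exposure 24 h, usually six 2-fold concentrations from 20 to 0.625 uM (some compounds higher or lower). Relative cell count is the cell number per well relative to DMSO wells. Activity score is the Mahalanobis distance of the morphological profile from DMSO control wells. Mean of four technical replicate plates.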

U-2 OS [3] = experiment: relative cell count vs DMSO (cell painting) (fraction of DMSO control); higher = more cells remaining (less cytotoxic); settings: 24 h
Method: as §1

Compound | AUC of culture confluence over time (U-2 OS [1]; 5 µM) | AUC of culture confluence over time (U-2 OS [1]; 10 µM) | AUC of culture confluence over time (U-2 OS [1]; 20 µM) | cell painting activity score (U-2 OS [2]; 0.625 µM) | cell painting activity score (U-2 OS [2]; 1.25 µM) | cell painting activity score (U-2 OS [2]; 2.5 µM) | cell painting activity score (U-2 OS [2]; 5 µM) | cell painting activity score (U-2 OS [2]; 10 µM) | cell painting activity score (U-2 OS [2]; 20 µM) | relative cell count (U-2 OS [3]; 0.625 µM) | relative cell count (U-2 OS [3]; 1.25 µM) | relative cell count (U-2 OS [3]; 2.5 µM) | relative cell count (U-2 OS [3]; 5 µM) | relative cell count (U-2 OS [3]; 10 µM) | relative cell count (U-2 OS [3]; 20 µM) | AUC of culture confluence over time (U-2 OS [1]; 1.25 µM) | cell painting activity score (U-2 OS [2]; 0.019532 µM) | cell painting activity score (U-2 OS [2]; 0.07812 µM) | cell painting activity score (U-2 OS [2]; 0.3124 µM) | relative cell count (U-2 OS [3]; 0.019532 µM) | relative cell count (U-2 OS [3]; 0.07812 µM) | relative cell count (U-2 OS [3]; 0.3124 µM)
COc1cc([C@@H]2c3cc4c(cc3[C@H](O)[C@H]3COC(=O)[C@H]23)OCO4)cc(OC)c1OC | 15.2 | 15.6 | 20.8 | 23.6 | 24.1 | 23.9 | 21 | 21 | 22 | 0.209 | 0.195 | 0.195 | 0.199 | 0.187 | 0.179 | – | – | – | – | – | – | –
N[C@@H](Cc1ccc(N(CCCl)CCCl)cc1)C(=O)O | 34.2 | 33.1 | 30.4 | 3.56 | 5.26 | 5.71 | 6.03 | 8.71 | 9.32 | 0.959 | 0.939 | 0.879 | 0.883 | 0.733 | 0.723 | – | – | – | – | – | – | –
CCN(CC)Cc1ccc2cc(COC(=O)Nc3ccc(C(=O)NO)cc3)ccc2c1.Cl | 16.5 | 20 | 18.5 | 16.1 | 14.9 | 15 | 15.6 | 16 | 16.9 | 0.781 | 0.654 | 0.491 | 0.424 | 0.403 | 0.373 | – | – | – | – | – | – | –
C[C@@H]1O[C@@H](O[C@H]2[C@H](O[C@H]3CC[C@@]4(C)[C@@H](CC[C@]5(C)[C@@H]4CC=C4[C@@H]6CC(C)(C)CC[C@]6(C(=O)O[C@@H]6O[C@H](CO[C@@H]7O[C@H](CO)[C@@H](O[C@@H]8O[C@@H](C)[C@H](O)[C@@H](O)[C@H]8O)[C@H](O)[C@H]7O)[C@@H](O)[C@H](O)[C@H]6O)CC[C@]45C)[C@]3(C)CO)OC[C@H](O)[C@@H]2O)[C@H](O)[C@H](O)[C@H]1O | 45.1 | 48.4 | 45.2 | 3.46 | 5.62 | 3.28 | 3.16 | 3.23 | 2.9 | 0.985 | 0.966 | 0.955 | 1 | 1.01 | 1.04 | – | – | – | – | – | – | –
C[C@]12O[C@H](C[C@]1(O)CO)n1c3ccccc3c3c4c(c5c6ccccc6n2c5c31)CNC4=O | 25.9 | 23.6 | 23.8 | 20.6 | 21.4 | 22.3 | 23.1 | 23.1 | 22.8 | 0.654 | 0.525 | 0.521 | 0.516 | 0.453 | 0.138 | – | – | – | – | – | – | –
CN1CCN(CCOc2cc(OC3CCOCC3)c3c(Nc4c(Cl)ccc5c4OCO5)ncnc3c2)CC1 | 39.5 | 33.5 | 34.5 | 8.87 | 8.9 | 9.68 | 9.8 | 10.5 | 11.3 | 0.997 | 0.953 | 0.993 | 0.997 | 0.991 | 0.933 | – | – | – | – | – | – | –
CC[C@@]1(O)C(=O)OCc2c1cc1n(c2=O)Cc2cc3ccccc3nc2-1 | 19.7 | – | 21.5 | – | 12.4 ± 0.52 | – | 13.7 ± 0.32 | – | 15.5 ± 0.56 | – | 0.476 ± 0.059 | – | 0.379 ± 0.037 | – | 0.351 ± 0.028 | 19.5 | 7.71 ± 3.2 | 9.83 ± 1.2 | 10.3 ± 0.47 | 0.694 ± 0.18 | 0.516 ± 0.026 | 0.503 ± 0.036
COc1ccc(/C=C/C(=O)O[C@@H]2[C@H](O[C@@H]3O[C@@H](C)[C@H](O)[C@@H](O)[C@H]3O)[C@@H](O[C@@H]3O[C@@H](C)[C@H](O[C@@H]4OC[C@@H](O[C@@H]5O[C@H](CO)[C@H](O)[C@H](O)[C@H]5O)[C@H](O)[C@H]4O)[C@@H](O)[C@H]3O)[C@H](OC(=O)[C@]34CCC(C)(C)C[C@H]3C3=CC[C@@H]5[C@@]6(C)C[C@H](O)[C@H](O[C@@H]7O[C@H](CO)[C@@H](O)[C@H](O)[C@H]7O)[C@@](C)(C(=O)O)[C@@H]6CC[C@@]5(C)[C@]3(CO)CC4)O[C@@H]2C)cc1 | 43.7 | 44.3 | 14.2 | 8.17 | 11.2 | 12.4 | 9.11 | 10.1 | 37.6 | 1.07 | 0.975 | 0.938 | 0.66 | 0.252 | 0.035 | – | – | – | – | – | – | –
O=c1c(O)c(-c2ccc(O)c(O)c2)oc2cc(O)ccc12 | 52.8 | 52 | 47.7 | 5.44 | 5.04 | 4.93 | 4.23 | 4.83 | 7.46 | 0.969 | 0.938 | 0.943 | 0.939 | 0.932 | 0.945 | – | – | – | – | – | – | –
CC(C)C[C@H](NC(=O)[C@H](CCc1ccccc1)NC(=O)CN1CCOCC1)C(=O)N[C@@H](Cc1ccccc1)C(=O)N[C@@H](CC(C)C)C(=O)[C@@]1(C)CO1 | 18.4 | 17.5 | 16.1 | 30.8 | 31.9 | 32.5 | 31.5 | 28.8 | 29.7 | 0.149 | 0.136 | 0.125 | 0.141 | 0.143 | 0.149 | – | – | – | – | – | – | –
Nc1nc(Cl)nc2c1ncn2[C@H]1C[C@H](O)[C@@H](CO)O1 | 30.2 | 34.5 | 33.3 | 12.6 | 13.3 | 13.6 | 14 | 14.8 | 15.2 | 0.638 | 0.588 | 0.583 | 0.555 | 0.55 | 0.539 | – | – | – | – | – | – | –
S=P(N1CC1)(N1CC1)N1CC1 | 39.2 | 31 | 32.9 | 3.3 | 3.39 | 3.97 | 4.44 | 5.38 | 7.45 | 1.06 | 0.967 | 0.939 | 0.904 | 0.942 | 0.856 | – | – | – | – | – | – | –
Cl.Nc1ccc(O)c2ccccc12 | 31.2 | 23.5 | 18 | 8.19 | 6.08 | 9.4 | 14.3 | 15.3 | 30.8 | 0.931 | 0.895 | 0.888 | 0.75 | 0.623 | 0.09 | – | – | – | – | – | – | –
CCCCc1c(-c2ccc(OC)cc2)[nH]c2nccnc12 | 53.2 | 47.6 | 52.7 | 4.99 | 3.58 | 6.25 | 6.12 | 8.25 | 8.09 | 1.01 | 0.952 | 0.968 | 0.949 | 0.927 | 0.624 | – | – | – | – | – | – | –
CC1=C2C(=CO[C@H](C)[C@H]2C)C(=O)C(C(=O)O)=C1O | 48.9 | 45.6 | 42 | 4.49 | 5.94 | 4.77 | 8.7 | 6.33 | 10.3 | 0.985 | 0.942 | 0.951 | 0.893 | 0.935 | 0.793 | – | – | – | – | – | – | –
C#CC[C@H](c1nc2cc(Cl)ccc2c(=O)n1Nc1ccccc1)N(CCCN)C(=O)c1cccc(Cl)c1F | 26.8 | 13.2 | 10.4 | 4.72 | 4.61 | 4.15 | 10.3 | 12.9 | 26.1 | 0.999 | 0.984 | 0.903 | 0.401 | 0.198 | 0.0211 | – | – | – | – | – | – | –
C[C@@H]1O[C@@H](O[C@H]2[C@H](O[C@H]3CC[C@@]4(C)[C@@H](CC[C@]5(C)[C@@H]4CC=C4[C@@H]6CC(C)(C)CC[C@]6(C(=O)O)CC[C@]45C)[C@]3(C)CO)OC[C@H](O[C@@H]3O[C@H](CO)[C@@H](O)[C@H](O)[C@H]3O)[C@@H]2O)[C@H](O)[C@H](O)[C@H]1O | 14.5 | 16.5 | 13 | 4.55 | 9.15 | 31.1 | 31.3 | 33.6 | 35.9 | 0.916 | 0.143 | 0.0325 | 0.0427 | 0.0257 | 0.015 | – | – | – | – | – | – | –
CC1(C)[C@@H](O[C@H]2O[C@H](C(=O)O)[C@@H](O)[C@H](O)[C@H]2O[C@@H]2O[C@H](C(=O)O)[C@@H](O)[C@H](O)[C@H]2O)CC[C@]2(C)[C@H]3C(=O)C=C4[C@@H]5C[C@@](C)(C(=O)O)CC[C@]5(C)CC[C@@]4(C)[C@]3(C)CC[C@@H]12.N | 50.8 | 48.2 | 51 | 4.09 | 5.25 | 5.85 | 3.67 | 3.06 | 3.66 | 1 | 0.993 | 0.972 | 0.982 | 1 | 1.03 | – | – | – | – | – | – | –
